Earlier results as cited in patent US20240226372A1, “HYDROPHILIC POLY(THIOKETAL) URETHANE SCAFFOLDS AND METHODS OF USE THEREOF” (Vanderbilt University, priority 2021, published 2024).

Tested on: osteoblasts
Design: dose or concentration left out as unconfirmed
Details: 21 antibiotics

**Q.** For CN[C@H](CC(C)C)C(=O)N[C@H]1C(=O)N[C@@H](CC(N)=O)C(=O)N[C@H]2C(=O)N[C@H]3C(=O)N[C@H](C(=O)N[C@H](C(=O)O)c4cc(O)cc(O)c4-c4cc3ccc4O)[C@H](O)c3ccc(c(Cl)c3)Oc3cc2cc(c3O[C@@H]2O[C@H](CO)[C@@H](O)[C@H](O)[C@H]2O[C@H]2C[C@](C)(N)[C@H](O)[C@H](C)O2)Oc2ccc(cc2Cl)[C@H]1O [vancomycin], which “effects on osteoblast function” value is on record?
**A.** The value was “least detrimental effects”.
